Assay results taken from patent US7655395B2, “Isolation and use of ryanodine receptors” (E.I. du Pont de Nemours and Company, priority 2002, dated 2010).

Legend:
[1] = molecular target: native cockroach ryanodine receptors (roach femoral muscle membranes) (Periplaneta americana, UniProt A0ABQ8T696); test: Radioligand displacement ([3H]-GN analog Cpd 1) on roach femoral muscle membranes; format: binding; settings: displacement of [3H]-Cpd 1, roach muscle membranes, 60 min at 32° C.; read-out: Displacement IC50 (nM) P. americana
Procedure: Binding to Roach Femoral Muscle Membranes:
Assays were carried out in triplicate.

[2] = molecular target: T1, recombinant Drosophila melanogaster ryanodine receptors (expressed in Sf9 cells) (Drosophila melanogaster, UniProt Q24498); format: cell-based; settings: receptor expressed in Sf9 cells
T1 construct: expressed in transfected cells
Procedure: The Spodoptera frugiperda cell line Sf9 used for transfection studies, was maintained in Sf-900 II SFM medium (Invitrogen Life Technologies™, Carlsbad, Calif.) in T-75 flasks incubated at 27° C. It is understood that those skilled in the art might choose alternative cell types such as the Spodoptera frugiperda cell line Sf21 or the Drosophila cell line S2. For the purpose of general handling and propagation, cells were suspended through scraping or agitation and a volume of cell suspension was added to each well of a poly-L-lysine coated 96-well, glass-bottom plate so as to provide 70-80% confluence. Cells were maintained in an incubator at 27° C. until testing.
SF900-II media was used to bring the final volume in the dish to 2 ml and the cells were incubated at 27 degrees C. for 21 h. Following the incubation the media was aspirated from the dish and replaced with 1 ml of SF900-II media pre-warmed to 27 degrees C.
The transient transfection was carried out following an InsectSelect BSD System manual (Invitrogen Life Technologies™, Carlsbad, Calif.). […] The transfection was accomplished by adding the transfection solution drop-wise to the dish and incubating 4 h at room temperature with gentle rocking. […]
(§1) Several drops of a suspension of recombinant Spodoptera frugiperda cell line, Sf9, transiently expressing insect ryanodine receptors were placed on a poly-L-lysine-coated coverslip and allowed to attach. Cells were then rinsed in physiological saline having the following composition (mM): NaCl 130; KCl 5.4; MgCl2 1.2; CaCl2 1.0; NaHCO3 4.2; NaH2P04 7.3; Glucose 10; Sucrose 63; MES 20; pH 6.3. Cells were then bathed in physiological saline containing the calcium sensitive fluoroprobe, Fura-2 AM (2 μM), and Pluronic F127 (0.002%) for 30 min. Cells were rinsed in standard physiological saline for at least 15 min prior to testing. Testing was conducted in standard physiological saline, as the cell lines are devoid of functional voltage-gated calcium channels.
Cell-attached coverslips were placed in a sealed chamber with physiological saline continuously perfused across the cells using a peristaltic pump. Test compounds solubilized in physiological saline were applied by switching the perfusate source.
(§2) For studies involving the stable recombinant Spodoptera frugiperda cell line, Sf9, (other cell lines could also be used such as Sf21, S2, etc) expressing an insect ryanodine receptor from Drosophila melanogaster, or Heliothis virescens (alternatively receptors from other species such as Myzus persicae, Peregrinus maidis, Aphis gossypii, etc) were grown in T75 (or other appropriate sized) flasks in supplemented Grace's insect medium. Cells were maintained in an incubator at 22° C. until testing. Cells were suspension-loaded with the calcium sensitive fluoroprobe, Fura-2 AM (1-2 μM) and Pluronic F127 (0.002%) in culture medium for 30 minutes under agitation. Cells were then centrifuged and the pellet resuspended in physiological saline having the following composition (mM): NaCl 130; KCl 5.4; MgCl2 1.2; CaCl2 1.0; NaHCO3 4.2; NaH2P04 7.3; Glucose 10; Sucrose 63; MES 20; pH 6.3 at approximately 150,000-200,000 cells per well (96-well plate). After a 30 minute equilibration period the cell plate was tested using a Molecular Devices' FlexStation™ system with dual wavelength excitation (340 and 380 nm) and fluorescence emission measured at 510 nm. Test and control samples were added using integrated fluidics and the intracellular calcium monitored over a 2 minute period.

[3] = tested on: recombinant Heliothis virescens ryanodine receptor (expressed in Sf9 cells); test: Calcium release assay, Sf9 cells transiently or stably expressing Heliothis virescens ryanodine receptor (Fura-2); format: cell-based; settings: Cpd 5 3 μM; Sf9 transiently expressing H. virescens ryanodine receptor, 72 hr post-transfection; FIG. 4
Procedure: SF9 cells were grown at 27 degrees C. in a Corning 125 ml polycarbonate Erlenmeyer flask to a density of 3.1 million cells per ml in SF900-II serum free media (Gibco catalog no. 10902-088, Invitrogen™, Carlsbad, Calif.). One million cells were transferred to one well of a Corning 6-well, flat bottom cell culture dish (Corning Inc., Acton, Mass., catalog no. 3516). SF900-II media was used to bring the final volume in the dish to 2 ml and the cells were incubated at 27 degrees C. for 21 h. Following the incubation the media was aspirated from the dish and replaced with 1 ml of SF900-II media pre-warmed to 27 degrees C.
In the case of the vectors containing the Cre recognition elements, the transfection solution was mixed in a 1.5 ml microfuge tube by combining 5 ug of pHE7 plasmid, 5 ug of pMLS104 Cre plasmid and 0.5 ug of lacZ reporter plasmid, 15 ug of cellfectin reagent (Invitrogen cat. #10362-010) and SF900-II serum free media (Gibco catalog #10902-088, Invitrogen™, Carlsbad, Calif.) in a total volume of 500 ul. The solution was incubated for 1 hour at room temperature just prior to the transfection.
The transfection was accomplished by adding the transfection solution drop-wise to the dish and incubating 4 h at room temperature with gentle rocking. After the 4 h incubation the media was replaced with 2 ml of SF900-II media pre-warmed to 27 degrees C. and the cells were incubated 3 days at 27 degrees C.
as §1, with “Testing was conducted in standard physiological saline, as the cell lines are devoid of functional voltage-gated calcium channels.” left out
For studies involving the stable recombinant Spodoptera frugiperda cell line, Sf9, (other cell lines could also be used such as Sf21, S2, etc) expressing an insect ryanodine receptor from Drosophila melanogaster, or Heliothis virescens (alternatively receptors from other species such as Myzus persicae, Peregrinus maidis, Aphis gossypii, etc) were grown in T75 (or other appropriate sized) flasks in supplemented Grace's insect medium. […] After a 30 minute equilibration period the cell plate was tested using a Molecular Devices' FlexStation™ system with dual wavelength excitation (340 and 380 nm) and fluorescence emission measured at 510 nm. […]

[4] = tested on: control cells without DNA / wild-type Sf9 cells; test: Calcium response in control Sf9 cells (without DNA, lipid only, non-transfected, wild type); format: cell-based, Spodoptera frugiperda; settings: Compound 5 3 μM
Source text: as §1
Imaging studies were conducted using a Nikon Diaphot microscope with a 40× oil immersion objective (NA 1.3) Image acquisition and processing was performed using the MetaFluor™ imaging system from Universal Imaging Corporation (West Chester, Pa.) Calcium calibration was carried out using the Grynkiewicz equation with a dissociation constant (Kd) of 145 nM for Fura-2 (Grynkiewicz et al., 1985). Cell-attached coverslips were placed in a sealed chamber with physiological saline continuously perfused across the cells using a peristaltic pump. Test compounds solubilized in physiological saline were applied by switching the perfusate source.
as §2

`Cc1cccc(C(=O)NC(C)C)c1NC(=O)c1cc(C(F)(F)F)nn1-c1ncccc1Cl` [Cpd 5, 1-(3-Chloro-2-pyridinyl)-N-[2-methyl-6-[[(1-methylethyl)amino]carbonyl]phenyl]-3-(trifluoromethyl)-1H-pyrazole-5-carboxamide] was tested, and the IC50 [1] was < 300 nM, the “Calcium Release Threshold (nM) D. melanogaster” value [2] was <300 nM and the “cytosolic [Ca2+] response” value [3] was “increase in cytosolic [Ca^2+]”. For the same compound, the “calcium response in control cells without DNA” value [4] was “No significant calcium responses”.
